Columns and labels:
Type in all cases: in vivo
[1] = test system: male rabbit (NewZealandWhite); assay: Aqueous humor protein concentration in rabbit after ocular instillation; settings: ocular instillation 30 μL of 0.1% (w/v), aqueous humor collected 0 to 8 hours
Experimental: (2-2) Assessment of Ocular Stimulating Property and Aqueous Humor Protein Concentration
To one eye of a male rabbit (NewZealandWhite, 2.0 to 3.0 kg), 30 μL of the compound of Example 16 (35), the compound of Example 16 (3) and the compound of Example 16 (25) which had been adjusted to 0.1% (w/v) with a base (containing citrate buffer pH 6.5, 0.5% polysorbate 80, 1% propylene glycol, 0.01% benzalkonium chloride), was ocular-instilled respectively. Thereafter, an aqueous humor in anterior chamber after 0, 1, 2, 4, 6 and 8 hours from ocular instillation was collected, and a protein concentration in the humor was measured. As a comparative compound, the aforementioned methyl ester of the compound of Example 12 described in Patent Literature 2 (i.e. compound of Example 10 described in Patent Literature 2) (hereinafter, abbreviated as Comparative Compound B in some cases) was used.
Regarding any test compound, a dose until a dissolution limit (150 to 1000 μg/mL) was administered and action of each active body was assessed.

[2] = test system: male monkey (crab-eating monkey); assay: Intraocular pressure lowering action in monkey under consciousness; settings: ocular instillation 30 μL, 10 μg/mL
Experimental: (2-3) Intraocular Pressure Lowering Action in Monkey Under Consciousness
To a left eye of a male monkey (crab-eating monkey) under consciousness, 30 μL of a solution obtained by adjusting a test substance with using the same base as that described above was ocular instillation-administered and, to a right eye, 30 μL of a solution of only a base as a control was ocular instillation-administered, respectively. An intraocular pressure after administration was measured with time from administration initiation until 24 hours. In case of measurement of an intraocular pressure, a crab-eating monkey was fixed on a monkey chair, and the monkey was anesthetized by ocular instillation-administering an ocular surface anesthetic (Benoxil eye drops 0.4% Santen Pharmaceutical Co., Ltd.). After mounting of a blepharostat (Handaya Co., Ltd.), an intraocular pressure of both eyes was measured (5 to 8 examples per group) with using a pneumatic applanation flat tonometer (Model 30 Classic, REICHERT). A difference in an intraocular pressure value between control eyes and eyes to which a test substance had been administered, was calculated as an intraocular pressure lowering rate with using the following equation, and sustainability of intraocular eye lowering action was assessed using a maximum intraocular pressure lowering rate during measurement and an intraocular pressure lowering rate after 24 hours. As the test substance, the Comparative Compound B, and the compounds of Example 16 (3), Example 16 (25) and Example 16 (35) were used, and an administration dose was 10 μg/mL in all cases.

[3] = test system: male dog (TOYO Beagle); assay: Intraocular pressure lowering action in dog after ocular instillation
Experimental: As can be easily understood by a person skilled in the art, in an in vivo test, since regarding all test compounds, carboxylic acid which is an active body has bad corneal permeability, pharmacological action of the active body was assessed by ocular instillation administration of a compound which had been converted into an ester such as a methyl ester, an ethyl ester, an isopropyl ester etc. In addition, in a group of the compound of the present inventions, by ocular instillation administration of the ester body in an experimental animal (rabbit, dog etc.) by which pharmacological action is confirmed below and, thereafter, measurement of a drug concentration of carboxylic acid in an aqueous humor, it was confirmed that the ester is rapidly converted into corresponding carboxylic acid.
(2-1) Intraocular Pressure Lowering Action
To one eye of a male dog (TOYO Beagle) which had been sufficiently acclimated in advance, 30 μL of each test compound (the compound of Example 16 (35), the compound of Example 16 (3) and the compound of Example 16 (25)) which had been adjusted with a base (containing citrate buffer pH 6.5, 0.5% polysorbate 80, 1% propylene glycol, […]), was ocular-instilled respectively. The other eye was not treated. As a positive control compound, latanoprost which is the known compound was used.
Thereafter, an ocular surface anesthetic (Benoxil eye drops 0.4%, Santen Pharmaceutical Co., Ltd.) was subjected to ocular instillation to locally anesthetize eyes, and an intraocular pressure of each test compound before ocular instillation and after 2, 4, 6, 8, and 24 hours from ocular instillation was measured. An intraocular pressure was measured using a pneumatic applanation flat tonometer (Model 30 Classic, REICHERT). An intraocular pressure lowering rate (%) was calculated by the following equation.

## CCOC(=O)CCC[C@H]1CC[C@@H]2[C@@H](/C=C/[C@@H](O)COc3ccccc3)[C@H](O)C[C@@H]2OC1 [Example 16 (35), Ethyl 4-{(3S,5aR,6R,7R,8aS)-7-hydroxy-6-[(1E,3R)-3-hydroxy-4-phenoxy-1-buten-1-yl]octahydro-2H-cyclopenta[b]oxepin-3-yl}butanoate]
[1]
  action of raising a protein concentration in an aqueous humor: no action of raising a protein concentration in an aqueous humor
[2]; after 24 hours
  Intraocular pressure lowering rate (%) after 24 hours: 14.9 ± 4.7%
[2]; maximum up to 24 hours
  Maximum intraocular pressure lowering rate (%): 19.2 ± 2.6%
[3]; ocular instillation 30 μL, administration dose 10 μg/mL, maximum among 2, 4, 6, 8 and 24 hours
  Maximum of intraocular pressure lowering rate (%): 31%
[3]; ocular instillation, in words
  intraocular pressure lowering action as compared with latanoprost: stronger intraocular pressure lowering action

— patent US9029574B2, “Bicyclic compound and use thereof for medical purposes” (Ono Pharmaceutical Co., Ltd., priority 2011, dated 2015)
